These results are taken from publication PMC3944524, “Antimicrobial Activity of the Marine Alkaloids, Clathrodin and Oroidin, and Their Synthetic Analogues” (Marine Drugs, 2014).

Structures are written as SMILES. Values after ≈ are worked out from the molar mass of the structure shown.

The subject of data set [1] is Enterococcus faecalis (ATCC 29212). The data set is described as follows: Broth microdilution antimicrobial assay, Enterococcus faecalis. The data set is classed as cell-based. The note with it: for SI (selectivity index): E. faecalis MIC50 vs Huh-7 cytotoxicity IC50; for MIC90 / MIC50: Enterococcus faecalis; for MIC90: ATCC29212, 24 h; for MIC50: ATCC29212, E. faecalis ATCC 29212, 24 h, sigmoidal curve fitting. How it is done:
(§1) Clinical control strains of Enterococcus faecalis (Gram-positive, ATCC 29212), Staphylococcus aureus (Gram-positive, ATCC 25923), Escherichia coli (Gram-negative, ATCC 25922) and a fungal strain, Candida albicans (ATCC 90028), were obtained from Microbiologics Inc. (St. Cloud, MN, USA) and used for the antimicrobial screening. Bacterial strains were grown on Mueller Hinton II agar (MHA, Becton Dickinson, Franklin Lakes, NJ, USA) […] Mueller Hinton II broth (MHB, Becton Dickinson, Franklin Lakes, NJ, USA) and the Candida strain on Sabouraud dextrose agar (SDA, Becton Dickinson, Franklin Lakes, NJ, USA) plates. Media were prepared in MilliQ water, according to the manufacturer's instructions, and autoclaved at 121 °C for 15 min. […] The Candida strain was grown on SDA plates at 28 °C for 18-24 h and suspended into sterile 0.9% saline for the assay. Antimicrobial assays were performed by the broth microdilution method following the guidelines of the Clinical and Laboratory Standards Institute (CLSI) and European Committee on Antimicrobial Susceptibility Testing (EUCAST). […] The Candida suspension was prepared in sterile 0.9% saline solution, and the suspension was diluted in RPMI-1640 media (with L-glutamine, without NaHCO3 and supplemented with 2% glucose and 0.165 M MOPS, buffered to pH 7; Lonza, Basel, Switzerland) to yield a final inoculum of 2.5 × 10^3 CFU/mL in the assay. Assays were carried out in clear 96-well microtiter plates and initiated by dispensing an equal volume of microbial suspension and sample solution diluted into the assay medium. The plates were incubated for 24 h at 37 °C (for Candida, the incubation was at 28 °C for 48 h) with agitation. […] The antimicrobial activity of the samples was calculated from the absorbance values by comparing to untreated controls and expressed as the percentage inhibition of growth. Reference antibiotics were used as positive controls on every assay plate (see Figure 2 for details). […] MIC50 values were determined from the dose-response results by sigmoidal curve fitting with Origin software (OriginLab, Corp., Wellesley Hills, MA, USA).

For data set [2], the system named is Staphylococcus aureus (ATCC 25923). The data set is described as follows: Broth microdilution antimicrobial assay, Staphylococcus aureus. The data set is classed as cell-based. The note with it: for SI (selectivity index): S. aureus MIC50 vs Huh-7 cytotoxicity IC50; for MIC90 / MIC50: Staphylococcus aureus; for MIC90: ATCC25923, 24 h; for MIC50: ATCC25923, S. aureus ATCC 25923, 24 h, sigmoidal curve fitting. How it is done:
as §1

Data set [3] in a line: Mammalian cell cytotoxicity, ATP assay (CellTiter-Glo). The data set is classed as cell-based, human. The note with it: human, Huh-7 cells, ATP assay, 24 h exposure, average of two dose-response experiments. The procedure:
Huh-7 cells (originating from human hepatocellular carcinoma) were kindly provided by Prof. Ralf Bartenschlager (University of Heidelberg, Heidelberg, Germany). […] The cells were incubated at 37 °C in a humidified atmosphere with 5% CO2. The effect of the most promising compounds on the metabolic activity of Huh-7 hepatocytes was assessed by intracellular ATP quantitation (Promega’s CellTiter-Glo Cell Viability Assay, Madison, WI, USA). In brief, cells were seeded at 20,000 cells/well on white-walled 96-well microplates (ViewPlate, PerkinElmer Inc., Wellesley, MA, USA) and incubated at 37 °C, 5% CO2 and 95% humidity overnight and then exposed to the compounds for 24 h. Following the exposure, cells were washed with 100 µL PBS, and 50 µL of fresh assay media and 50 µL of the CellTiter-Glo reagent were added into the wells. After 2 min of shaking and 10 min incubation at rt, luminometric signal was measured using a Varioskan Flash plate reader (Thermo Fisher Scientific, Vantaa, Finland). […] The IC50 values were calculated by fitting the data into sigmoidal dose-response curves with the Origin software.
Background: Cellular ATP, detected with luciferase, serves as a proxy for viable cell number.

Compound `COc1ccc2[nH]c(C(=O)Nc3cccc(-c4cn(C(=O)OC(C)(C)C)c(N)n4)c3)cc2c1` [Compound 5f, tert-Butyl 2-amino-4-(3-(5-methoxy-1H-indole-2-carboxamido)phenyl)-1H-imidazole-1-carboxylate] came in with a melting point of 173 to 177 °C.
Regarding `CC(C)(C)OC(=O)n1cc(-c2cccc(NC(=O)c3cc4cc(OC(F)(F)F)ccc4[nH]3)c2)nc1N` [Compound 5g, tert-Butyl 2-amino-4-(3-(5-(trifluoromethoxy)-1H-indole-2-carboxamido)phenyl)-1H-imidazole-1-carboxylate], the melting point was in the range of 185 to 187 °C.
Same read-out and setting: with `CC(C)(C)OC(=O)n1cc(-c2cccc(NC(=O)c3cc4cc(OCc5ccccc5)ccc4[nH]3)c2)nc1N` [Compound 5h, tert-Butyl 2-amino-4-(3-(5-(benzyloxy)-1H-indole-2-carboxamido)phenyl)-1H-imidazole-1-carboxylate] the figure was 140 to 143 °C; with `CC(C)(C)OC(=O)n1cc(-c2cccc(NC(=O)c3cc4cc(F)ccc4[nH]3)c2)nc1N` [Compound 5j, tert-Butyl 2-amino-4-(3-(5-fluoro-1H-indole-2-carboxamido)phenyl)-1H-imidazole-1-carboxylate], 189 to 192 °C.
Same read-out and setting: with `CC(C)(C)OC(=O)n1cc(-c2cccc(NC(=O)c3cc4sccc4[nH]3)c2)nc1N` [Compound 5k, tert-Butyl 4-(3-(4H-thieno[3,2-b]pyrrole-5-carboxamido)phenyl)-2-amino-1H-imidazole-1-carboxylate] the figure was 178 to 180 °C.
Take `Nc1nc(-c2cccc(NC(=O)c3cc4ccccc4[nH]3)c2)c[nH]1` [Compound 6d]: in data set [1], the “SI (selectivity index)” value worked out at 1.2, the MIC90 came out at 50 µM (≈ 15.9 µg/mL) and the MIC50 was found to be 34 µM (≈ 10.8 µg/mL). Also, in data set [2], the “SI (selectivity index)” value is 1.4, the MIC90 was 50 µM (≈ 15.9 µg/mL) and the MIC50 is 29.4 µM (≈ 9.33 µg/mL). The compound also showed an IC50 at 24 h in data set [3] of 42.3 µM.
The compound `COc1ccc2[nH]c(C(=O)Nc3cccc(-c4c[nH]c(N)n4)c3)cc2c1.Cl` [Compound 6f, 2-Amino-4-(3-(5-methoxy-1H-indole-2-carboxamido)phenyl)-1H-imidazol-3-ium chloride] showed a melting point of 237 to 241 °C. Besides, in data set [2], the “SI (selectivity index)” value is recorded as 2.7, the MIC90 was 50 µM and the MIC50 amounted to 11.9 µM. In addition, the IC50 at 24 h in data set [3] came to 32.2 µM.
Turning to `Cl.Nc1nc(-c2cccc(NC(=O)c3cc4cc(OC(F)(F)F)ccc4[nH]3)c2)c[nH]1` [Compound 6g, 2-Amino-4-(3-(5-(trifluoromethoxy)-1H-indole-2-carboxamido)phenyl)-1H-imidazol-3-ium chloride], the melting point lay within 255 to 260 °C.
Regarding `Cl.Nc1nc(-c2cccc(NC(=O)c3cc4cc(Cl)ccc4[nH]3)c2)c[nH]1` [Compound 6i, 2-Amino-4-(3-(5-chloro-1H-indole-2-carboxamido)phenyl)-1H-imidazol-3-ium chloride], the melting point lay within 201 to 204 °C. For the same compound, in data set [2], the “SI (selectivity index)” value is 3.0, the MIC90 was 50 µM and the MIC50 is 7.2 µM. Further, the 50% inhibitory concentration (IC50) at 24 h in data set [3] came out at 21.7 µM.
For `Cl.Nc1nc(-c2cccc(NC(=O)c3cc4cc(F)ccc4[nH]3)c2)c[nH]1` [Compound 6j, 2-Amino-4-(3-(5-fluoro-1H-indole-2-carboxamido)phenyl)-1H-imidazol-3-ium chloride], the melting point is 202 to 205 °C. Moreover, in data set [1], the “SI (selectivity index)” value was 0.7, the MIC90 worked out at 100 µM and the MIC50 was determined as 27.3 µM. In data set [2], the “SI (selectivity index)” value was 0.9, the MIC90 was 50 µM and the MIC50 stood at 22.1 µM. In data set [3], this compound returned a 50% inhibitory concentration (IC50) at 24 h of 19.8 µM.
Compound `Cl.Nc1nc(-c2cccc(NC(=O)c3cc4sccc4[nH]3)c2)c[nH]1` [Compound 6k, 4-(3-(4H-Thieno[3,2-b]pyrrole-5-carboxamido)phenyl)-2-amino-1H-imidazol-3-ium chloride] had a melting point of 198 to 202 °C. Besides, in data set [2], the “SI (selectivity index)” value amounted to 2.0, the MIC90 stood at 100 µM and the MIC50 worked out at 27.1 µM. In data set [3], this compound returned an IC50 at 24 h of 53.6 µM.
For the compound `CNc1nc(-c2cccc(NC(=O)c3cc4ccccc4[nH]3)c2)c[nH]1` [Compound 6l], in data set [1], the “SI (selectivity index)” value was found to be 1.0, the MIC90 was 100 µM (≈ 33.1 µg/mL) and the MIC50 stood at 54.2 µM (≈ 18 µg/mL). In data set [2], the “SI (selectivity index)” value worked out at 4.9, the MIC90 worked out at 75 µM (≈ 24.9 µg/mL) and the MIC50 worked out at 10.8 µM (≈ 3.58 µg/mL). Also, the IC50 at 24 h in data set [3] is 52.3 µM.
Consider `CC(C)(C)OC(=O)n1cc(-c2cccc(NC(=O)c3cc4cc(O)ccc4[nH]3)c2)nc1N` [Compound 7, tert-Butyl 2-Amino-4-(3-(5-hydroxy-1H-indole-2-carboxamido)phenyl)-1H-imidazole-1-carboxylate], for which the melting point lay in the range of 192 to 196 °C. In data set [2], this compound displayed an MIC90 of 100 µM (≈ 43.3 µg/mL) and an MIC50 of 11.6 µM (≈ 5.03 µg/mL). In addition, in data set [3], the concentration for half-maximal inhibition (IC50) at 24 h is 94 µM.
On to `Cl.Nc1nc(-c2cccc(NC(=O)c3cc4cc(O)ccc4[nH]3)c2)c[nH]1` [Compound 8, 2-Amino-4-(3-(5-hydroxy-1H-indole-2-carboxamido)phenyl)-1H-imidazol-3-ium chloride], for which the melting point was in the range of 248 to 252 °C. For the same compound, in data set [2], the “SI (selectivity index)” value is above 2.5, the MIC90 is 100 µM and the MIC50 worked out at 40.5 µM. Also, the IC50 at 24 h in data set [3] is above 100 µM.
The compound `Nc1nc(-c2cccc(NC(=O)c3ccc[nH]3)c2)cn1Cc1ccccc1` [Compound 15, N-(3-(2-Amino-1-benzyl-1H-imidazol-4-yl)phenyl)-1H-pyrrole-2-carboxamide] gave a melting point of 229 to 232 °C.
In turn, `Nc1nc(-c2cccc(NCc3ccc[nH]3)c2)cn1Cc1ccccc1` [Compound 16, 4-(3-(((1H-Pyrrol-2-yl)methyl)amino)phenyl)-1-benzyl-1H-imidazol-2-amine] yielded a melting point of 165 to 168 °C.

As a reminder, the melting point is the temperature of the solid-liquid transition. The MIC90 is the lowest concentration that inhibits either 90% of growth or 90% of the strains tested, depending on the study. Low readings indicate greater potency, high ones weaker potency. A word on the MIC50: it is an inhibitory concentration at the 50% level, which refers to growth in some studies and to a panel of isolates in others. For orientation: IC50 means the concentration that inhibits the measured activity by half. Read a high IC50 as lower potency.
